Values of other authors in patent publication US20210378997A1, “INHIBITOR OF RENAL FIBROSIS IN DIABETIC NEPHROPATHY” (KYOTO PREFECTURAL PUBLIC UNIVERSITY CORPORATION, priority 2018, published 2021).

Conditions: patients with diabetic nephropathy, 1-year medication

Cc1ccc(=O)n(-c2ccccc2)c1 [pirfenidone]
renal function (eGFR): significantly improved
